Assay results from patent US20250093329A1, “SCREENING OF COMPOUNDS” (THE UNIVERSITY OF TULSA, priority 2022, published 2025).
“Also recorded” adds a separate entry of the source.

Legend:
each cell line tested = experiment: ATP levels by CellTiter-Glo, all cell lines of Table 1 taken together; assay type: cell-based; conditions: Table 1 cell lines
Source text: A wide variety of ATP luminescing detection reagents are available commercially. So long as the reagent produces a luminescence in the presence of ATP, the reagent will be suitable for use in the present method. Suitable reagents include but are not limited to any ATP dependent luciferase such as but not limited to firefly luciferase, other modified luciferase based reagents, i.e. luciferase derivatives. According to the rapid method for determining the anti-cancer activity of a compound, a sample of living cells is distributed across a number of testing wells. Typically, 96-well plates are used; however, the number of wells is not critical to the current method. When using a 96-well plate the number of living cells will commonly be about 20,000. […] The sample wells contain a cell growth medium to promote cell health and growth and an additive to prevent bacterial contamination of the wells. One common example of the cell growth medium is DMEM with 10% FBS as described above. One example of the additive to prevent bacterial contamination is a solution of penicillin G and streptomycin referred to commonly as Pen-Strep. The Pen-Strep solution typically contains 5000 units of penicillin G and 5000 micrograms of streptomycin. Thus, the rapid determination of anti-cancer compounds can be carried out using the following method. • The desired number of cells are distributed in a 96-well plate containing 100 μL DMEM plus 10% FBS with optional Pen-Strep. • After 24 hours, cells are treated with the compound of interest or a 5% solution of dimethyl sulfoxide (DMSO) in water as a control. • The time period for exposure to the compound of interest and the DMSO control will vary depending on the luminescing detection reagent. However, when using a commercially available reagent such as resazurin (CellTiter Blue commercially available from Promega) or luciferase or a luciferase derivative (CellTiter Glo commercially available from Promega) the time period can be readily determined with reference to literature from the commercial source. Other luminescing detection agents can also be used with minimal experimentation to determine the desired compound exposure time. • Upon completion of the time period for exposure to the compound of interest or the DMSO, 10 μL of the luminescing detection reagent is added and the cells are lysed by a detergent added along with the luminescing detection reagent. • When the reagent is resazurin, as found in CellTiter-Blue the time period for exposure to the compound of interest and the DMSO will be about 24 hours. • When the reagent is luciferase or a luciferase derivative as found in CellTiter-Glo the time period for exposure to the compound of interest and the DMSO will be about 30 minutes to four hours. • The luminescing detection reagent is added over a period of time. • When using resazurin, the time period for the addition of the 10 μl volume takes place over a period of about one to four hours. • When using luciferase or a luciferase derivative, the time period is about 3 minutes to about 7 minutes, typically about 5 minutes. • During the time period of addition of the luminescing detection reagent the resulting luminescence is measured using conventional methods and devices. […] If the compound of interest deactivates the cell, then the cell produces less or no ATP. As a result, the cells in the well treated with the compound of interest will have a lower luminescence value as compared to the cells in wells treated with DMSO. • The value for the cells treated with the compound of interest is reported as a “percent of control” (POC) value. The determination of POC is calculated by dividing the averaged response from duplicate wells containing the cells as treated with the compound of interest by the average response of duplicate control wells which contain only cells and DMSO (in other words, a blank control experiment). […]

BxPC3 = experiment: ATP levels by CellTiter-Glo, compound alone or with metabolic inhibitor (Table 1); assay type: cell-based; conditions: compound 100 uM + 2DG (about 10-20 mM), DMEM + 10% FBS, two hour incubation, DMSO control
Source text: The improved method for identifying such compounds measures ATP levels as a function of light emitted by any ATP dependent luciferase or modified luciferases, i.e. luciferase derivatives. The method uses a conventional luminescent assay to determine the number of viable cells in a culture. The improvement provided by the present method results from pre-treating cells used in the assays with a metabolic inhibitor prior to treatment with the compound of interest, or switching the cells to a media formulated to force use of a specific metabolic pathway. Luminescent assays for determining cytotoxicity are well known in the art. […]
Following treatment of the control and test cells with the metabolic inhibitor (or switching to a new media), the method calls for addition of the compound to be screened for anti-cancer properties to the cells. […] Following completion of the selected time period, the ATP level within the cell is determined. ATP levels can be determined by luminescence according to standard measuring procedures, i.e. the luminescence level of the assay from the living cells treated with the two component composition is compared to the luminescence level of the assay from the living cells without the two component composition, i.e., the control experiment. […]

SMILES: O=S(=O)(NCc1c[nH]c2ccccc12)c1ccc(Cl)cc1 [Compound 2, N-[(1H-indol-3-yl)methyl]-4-chlorobenzenesulfonamide]
- reduction in luminescence (reduced ATP) across the cell lines, compound alone (each cell line tested; 100 μM compound alone): reduction in luminescence
- effectiveness across the cell lines, with 2-DG (each cell line tested; 100 μM compound with 2-DG): effectiveness against each cell line; also recorded: remarkable effectiveness
- percent of control (POC), ATP luminescence (BxPC3): remarkable value; also recorded: effectiveness
